Measured values as given in patent US8435978B2, “Substituted sulfonamide compounds” (Gruenenthal GmbH, priority 2006, dated 2013).
Where a name gives a salt, the structure may show the parent alone.

What was measured:
[1] = molecular target: T1, B1R receptor of the rat (Rattus norvegicus, UniProt P97583); test: Functional study on the bradykinin receptor 1 (B1R), FLIPR Ca2+ assay, rB1R cells; format: cell-based; details: CHO-K1, test substance 10 μM, agonist Des-Arg9-bradykinin 100 nM, % inhibition compared with the maximum achievable inhibition, read-out: B1R Antagonism, rat [10 μM] % Inhibition
T1 construct: host or cells: CHO K1 cells (Chinese hamster ovary), stably transfected
T1 sequence (P97583 1-337): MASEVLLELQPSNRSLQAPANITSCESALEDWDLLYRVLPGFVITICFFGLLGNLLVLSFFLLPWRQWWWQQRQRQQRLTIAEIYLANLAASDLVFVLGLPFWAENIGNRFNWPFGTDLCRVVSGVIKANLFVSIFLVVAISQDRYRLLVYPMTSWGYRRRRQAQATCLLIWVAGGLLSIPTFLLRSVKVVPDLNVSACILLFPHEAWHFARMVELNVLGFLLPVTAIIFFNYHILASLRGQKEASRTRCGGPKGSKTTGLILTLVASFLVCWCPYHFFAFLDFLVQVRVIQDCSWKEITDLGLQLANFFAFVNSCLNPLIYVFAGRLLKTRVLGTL
In short: (§1)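 Cells were dye-loaded 60 min at 37 °C, equilibrated 20 min at room temperature, then given 10 μM compound. Ten minutes later the species-matched agonist was added (0.5 nM Lys-Des-Arg9-bradykinin, human; 100 nM Des-Arg9-bradykinin, rat) and Ca2+ influx suppression expressed as % of maximum inhibition.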

[2] = molecular target: T2, human B1R receptor (Homo sapiens, UniProt P46663); test: Functional study on the bradykinin receptor 1 (B1R), FLIPR Ca2+ assay, hB1R cells; format: cell-based; details: CHO-K1, test substance 10 μM, agonist Lys-Des-Arg9-bradykinin 0.5 nM, % inhibition compared with the maximum achievable inhibition, read-out: B1R Antagonism, human [10 μM] % Inhibition
T2 construct: host or cells: CHO K1 cells (Chinese hamster ovary), stably transfected
T2 sequence (P46663 1-353): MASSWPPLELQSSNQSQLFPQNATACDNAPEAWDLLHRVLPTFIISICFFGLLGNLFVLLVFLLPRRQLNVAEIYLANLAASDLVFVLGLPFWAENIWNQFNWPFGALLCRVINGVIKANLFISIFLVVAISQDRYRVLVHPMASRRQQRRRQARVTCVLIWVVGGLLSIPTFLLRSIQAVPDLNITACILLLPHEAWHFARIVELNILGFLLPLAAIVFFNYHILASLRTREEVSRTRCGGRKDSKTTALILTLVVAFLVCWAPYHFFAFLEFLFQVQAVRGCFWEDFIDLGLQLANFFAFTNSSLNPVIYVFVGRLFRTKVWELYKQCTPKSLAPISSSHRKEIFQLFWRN
In short: as §1

Row | inhibition at 10 µM [1] | inhibition at 10 µM [2] | SMILES
1 | 100% | 104% | COc1ccc(N2CCN(C(=O)COCC3CCCCN3S(=O)(=O)c3c(Cl)cccc3Cl)CC2)cc1 (stereo not drawn) [Example 319, 2-((1-(2,6-dichlorophenylsulfonyl)piperidin-2-yl)methoxy)-1-(4-(4-methoxyphenyl)piperazin-1-yl)ethanone]
2 | 102% | 103% | COc1cc(C)c(S(=O)(=O)N2CCCCC2COCC(=O)N2CCCN(Cc3ccccc3)CC2)c(C)c1 (stereo not drawn) [Example 362, 1-(4-benzyl-1,4-diazepan-1-yl)-2-((1-(4-methoxy-2,6-dimethylphenylsulfonyl)piperidin-2-yl)methoxy)ethanone]
3 | 98.1% | 97.7% | CN1CCC(N2CCN(C(=O)COCC3CCCN3S(=O)(=O)c3c(Cl)cc(C(F)(F)F)cc3Cl)CC2)CC1 (stereo not drawn) [Example 570, 2-((1-(2,6-dichloro-4-(trifluoromethyl)phenylsulfonyl)pyrrolidin-2-yl)methoxy)-1-(4-(1-methylpiperidin-4-yl)piperazin-1-yl)ethanone]
4 | 101% | 101% | COc1cc(C)c(S(=O)(=O)N2CCCC2COCC(=O)N2CCCN(C)CC2)c(C)c1 (stereo not drawn) [Example 467, 2-((1-(4-methoxy-2,6-dimethylphenylsulfonyl)pyrrolidin-2-yl)methoxy)-1-(4-methyl-1,4-diazepan-1-yl)ethanone]
5 | 99.8% | 102% | Cc1ccc(CN2CCN(C(=O)COCC3CCCCN3S(=O)(=O)c3c(Cl)cccc3Cl)CC2)cc1 (stereo not drawn) [Example 408, 2-((1-(2,6-dichlorophenylsulfonyl)piperidin-2-yl)methoxy)-1-(4-(4-methylbenzyl)piperazin-1-yl)ethanone]
6 | 106% | 39.8% | COc1cc(C)c(S(=O)(=O)N2CCCCC2COCC(=O)Nc2cc(-c3ccccc3)n[nH]2)c(C)c1 (stereo not drawn) [Example 545, 2-((1-(4-methoxy-2,6-dimethylphenylsulfonyl)piperidin-2-yl)methoxy)-N-(3-phenyl-1H-pyrazol-5-yl)acetamide]
7 | 107% | 49.2% | COc1cc(C)c(S(=O)(=O)N2CCCCC2COCC(=O)Nc2cc(-c3cccc(F)c3)[nH]n2)c(C)c1 (stereo not drawn) [Example 542, N-(5-(3-fluorophenyl)-1H-pyrazol-3-yl)-2-((1-(4-methoxy-2,6-dimethylphenylsulfonyl)piperidin-2-yl)methoxy)acetamide]
8 | 103% | 96.7% | Cc1ccc(CN2CCN(C(=O)COCC3CCCN3S(=O)(=O)c3c(Cl)cccc3Cl)CC2)cc1 (stereo not drawn) [Example 360, 2-((1-(2,6-dichlorophenylsulfonyl)pyrrolidin-2-yl)methoxy)-1-(4-(4-methylbenzyl)piperazin-1-yl)ethanone]

More lines, now with the values behind:

Row | SMILES | inhibition at 10 µM [1] | inhibition at 10 µM [2]
9 | COc1cc(C)c(S(=O)(=O)N2CCCCC2COCC(=O)N2CCC(c3ccncc3)CC2)c(C)c1 (stereo not drawn) [Example 201, 2-((1-(4-methoxy-2,6-dimethylphenylsulfonyl)piperidin-2-yl)methoxy)-1-(4-(pyridin-4-yl)piperidin-1-yl)ethanone] | 98.2% | 103%
10 | COc1ccc(S(=O)(=O)N2Cc3ccccc3C[C@H]2COCC(=O)N2CCN(CC3CCN(C)CC3)CC2)cc1 [Example 189, (S)-2-((2-(4-methoxyphenylsulfonyl)-1,2,3,4-tetrahydroisoquinolin-3-yl)methoxy)-1-(4-((1-methylpiperidin-4-yl)methyl)piperazin-1-yl)ethanone dihydrochloride] | 86.4% | 70.7%
11 | O=C(COCC1CCCCN1S(=O)(=O)c1ccc(Br)cc1)N1CCC(CCN2CCCC2)CC1 (stereo not drawn) [Example 125, 2-((1-(4-bromophenylsulfonyl)piperidin-2-yl)methoxy)-1-(4-(2-(pyrrolidin-1-yl)ethyl)piperidin-1-yl)ethanone] | 95.4% | 50.6%
12 | O=C(COCC1CCCCN1S(=O)(=O)c1c(Cl)cccc1Cl)N1CCN(c2ccncc2)CC1 (stereo not drawn) [Example 283, 2-((1-(2,6-dichlorophenylsulfonyl)piperidin-2-yl)methoxy)-1-(4-(pyridin-4-yl)piperazin-1-yl)ethanone] | 92.9% | 103%
13 | COc1cc(C)c(S(=O)(=O)N2CCCCC2COCC(=O)N(C)CCc2ccncc2)c(C)c1 (stereo not drawn) [Example 239, 2-((1-(4-methoxy-2,6-dimethylphenylsulfonyl)piperidin-2-yl)methoxy)-N-methyl-N-(2-(pyridin-4-yl)ethyl)acetamide] | 99.7% | 94.7%
14 | Cc1cc(C)c(S(=O)(=O)N2CCCCC2COCC(=O)Nc2cccc(CN3CCCCC3)c2)c(C)c1 (stereo not drawn) [Example 76, N-(3-piperidin-1-ylmethyl-phenyl)-2-[1-(2,4,6-trimethyl-phenylsulfonyl)-piperidin-2-ylmethoxy]-acetamide] | 40.3% | 48.9%
15 | COc1cc(C)c(S(=O)(=O)N2CCCC2COCC(=O)N(C)[C@H]2CCN(Cc3ccccc3)C2)c(C)c1 (stereo partly drawn) [Example 303, N—((S)-1-benzylpyrrolidin-3-yl)-2-((1-(4-methoxy-2,6-dimethylphenylsulfonyl)pyrrolidin-2-yl)methoxy)-N-methylacetamide] | 100% | 106%
16 | O=C(COCC1CCCCN1S(=O)(=O)c1c(Cl)cccc1Cl)N1CCC(c2ccncc2)C1 (stereo not drawn) [Example 282, 2-((1-(2,6-dichlorophenylsulfonyl)piperidin-2-yl)methoxy)-1-(3-(pyridin-4-yl)pyrrolidin-1-yl)ethanone] | 86% | 103%
17 | O=C(COCC1Cc2ccccc2N1S(=O)(=O)c1ccc(Cl)c(Cl)c1)NCc1ccc(CN2CCCC2)cc1 (stereo not drawn) [Example 81, 2-[1-(3,4-dichloro-phenylsulfonyl)-2,3-dihydro-1H-indol-2-ylmethoxy]-N-(4-pyrrolidin-1-ylmethyl-benzyl)-acetamide] | 34.1% | 44.9%
18 | Cc1cc(C)c(S(=O)(=O)N2CCCCC2COCC(=O)N2CCN(CC3CCN(C)CC3)CC2)c(C)c1 (stereo not drawn) [Example 232, 2-((1-(mesitylsulfonyl)piperidin-2-yl)methoxy)-1-(4-((1-methylpiperidin-4-yl)methyl)piperazin-1-yl)ethanone] | 90% | 102%
19 | CC(C)N(CCN1CCN(C(=O)COCC2CCCCN2S(=O)(=O)c2c(Cl)cc(Cl)cc2Cl)CC1)C(C)C (stereo not drawn) [Example 254, 1-(4-(2-(diisopropylamino)ethyl)piperazin-1-yl)-2-((1-(2,4,6-trichlorophenylsulfonyl)piperidin-2-yl)methoxy)ethanone] | 97.8% | 105%
20 | COc1cc(C)c(S(=O)(=O)N2CCCC[C@H]2COCC(=O)N2CCN(C3CCN(C)CC3)CC2)c(C)c1 [Example 167, (S)-2-((1-(4-methoxy-2,6-dimethylphenylsulfonyl)piperidin-2-yl)methoxy)-1-(4-(1-methylpiperidin-4-yl)piperazin-1-yl)ethanone] | 101% | 102%
21 | COCCN1CCN(C(=O)COCC2CCCCN2S(=O)(=O)c2ccc(Cl)c(Cl)c2)CC1 (stereo not drawn) [Example 46, 2-[1-(3,4-dichloro-phenylsulfonyl)-piperidin-2-ylmethoxy]-1-[4-(2-methoxy-ethyl)-piperazin-1-yl]-ethanone] | 0% | 68.2%
22 | CN1CCC(N2CCN(C(=O)COCC3CCCCN3S(=O)(=O)c3cccc4cccnc34)CC2)CC1 (stereo not drawn) [Example 175, 1-(4-(1-methylpiperidin-4-yl)piperazin-1-yl)-2-((1-(quinolin-8-ylsulfonyl)piperidin-2-yl)methoxy)ethanone dihydrochloride] | 86.3% | 103%
23 | CN1CCN(C2CCN(C(=O)COCC3CCCN3S(=O)(=O)c3c(Cl)cccc3Cl)CC2)CC1 (stereo not drawn) [Example 285, 2-((1-(2,6-dichlorophenylsulfonyl)pyrrolidin-2-yl)methoxy)-1-(4-(4-methylpiperazin-1-yl)piperidin-1-yl)ethanone] | 91% | 104%
24 | CN1CCN(c2ccc(CNC(=O)COCC3CCCN3S(=O)(=O)c3c(Cl)cc(Cl)cc3Cl)cc2)CC1 (stereo not drawn) [Example 29, N-[4-(4-methyl-piperazin-1-yl)-benzyl]-2-[1-(2,4,6-trichloro-phenylsulfonyl)-pyrrolidin-2-ylmethoxy]-acetamide] | 110% | 84.4%
